The text below walks through data of ChEMBL document CHEMBL1133407, “Ring constrained analogues of beta-alanine-containing GPIIb/IIIa receptor antagonists” (Bioorg Med Chem Lett, 2000).

Assay [1] concerns the target T1, Integrin alpha-IIb/beta-3 (Homo sapiens, UniProt P05106+P08514). Put plainly: Relative binding to unactivated/activated platelets.
Assay [2] deals with T1, Integrin alpha-IIb/beta-3. Description: Inhibition of Platelet glycoprotein IIb/Platelet glycoprotein IIIa binding in unactivated human platelets.
Target sequence in this assay (P05106 27-788 limits assumed): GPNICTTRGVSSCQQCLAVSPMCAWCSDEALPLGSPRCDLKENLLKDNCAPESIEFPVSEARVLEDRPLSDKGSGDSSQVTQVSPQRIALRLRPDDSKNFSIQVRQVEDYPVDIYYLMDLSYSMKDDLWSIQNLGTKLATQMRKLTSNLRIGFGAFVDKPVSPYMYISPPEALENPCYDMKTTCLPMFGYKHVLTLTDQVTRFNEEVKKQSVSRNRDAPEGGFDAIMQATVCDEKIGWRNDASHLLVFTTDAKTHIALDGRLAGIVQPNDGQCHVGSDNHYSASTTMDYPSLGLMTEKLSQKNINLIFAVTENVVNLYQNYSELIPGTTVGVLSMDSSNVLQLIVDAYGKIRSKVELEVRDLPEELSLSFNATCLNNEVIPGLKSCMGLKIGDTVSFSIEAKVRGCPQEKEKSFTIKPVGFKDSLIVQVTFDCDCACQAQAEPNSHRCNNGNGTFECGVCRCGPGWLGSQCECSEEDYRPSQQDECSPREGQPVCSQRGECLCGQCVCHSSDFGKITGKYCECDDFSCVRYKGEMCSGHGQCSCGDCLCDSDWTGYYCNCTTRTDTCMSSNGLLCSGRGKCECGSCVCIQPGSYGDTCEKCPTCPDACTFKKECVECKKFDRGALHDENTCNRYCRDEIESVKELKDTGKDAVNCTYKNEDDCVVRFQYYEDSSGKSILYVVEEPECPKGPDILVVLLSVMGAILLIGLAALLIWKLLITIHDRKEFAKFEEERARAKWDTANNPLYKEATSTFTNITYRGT
Target sequence in this assay (P08514 32-887 limits assumed): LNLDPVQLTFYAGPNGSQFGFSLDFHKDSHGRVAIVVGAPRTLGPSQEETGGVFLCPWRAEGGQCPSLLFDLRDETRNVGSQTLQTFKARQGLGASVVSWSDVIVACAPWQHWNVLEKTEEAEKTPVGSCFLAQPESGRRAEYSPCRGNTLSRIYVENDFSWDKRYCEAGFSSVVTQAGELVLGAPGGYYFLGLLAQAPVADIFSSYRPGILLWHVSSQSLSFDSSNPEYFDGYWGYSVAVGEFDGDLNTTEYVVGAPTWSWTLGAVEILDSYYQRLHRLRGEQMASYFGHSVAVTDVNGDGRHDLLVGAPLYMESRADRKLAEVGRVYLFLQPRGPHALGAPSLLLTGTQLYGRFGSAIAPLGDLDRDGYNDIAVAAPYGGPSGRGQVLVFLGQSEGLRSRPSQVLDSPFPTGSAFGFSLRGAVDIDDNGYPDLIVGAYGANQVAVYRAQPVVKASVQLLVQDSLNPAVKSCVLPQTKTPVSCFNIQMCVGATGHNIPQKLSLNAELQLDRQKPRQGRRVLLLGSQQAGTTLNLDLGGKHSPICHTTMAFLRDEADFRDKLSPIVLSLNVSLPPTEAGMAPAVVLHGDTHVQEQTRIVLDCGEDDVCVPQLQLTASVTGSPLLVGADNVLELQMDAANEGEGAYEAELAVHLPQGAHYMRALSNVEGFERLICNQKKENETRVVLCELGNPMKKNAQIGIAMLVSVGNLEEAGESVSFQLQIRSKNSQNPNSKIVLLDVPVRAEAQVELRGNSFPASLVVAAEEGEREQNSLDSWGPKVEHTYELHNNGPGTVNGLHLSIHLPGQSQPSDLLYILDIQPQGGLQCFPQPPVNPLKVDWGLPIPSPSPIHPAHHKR
Target sequence in this assay (P08514 891-1039 limits assumed): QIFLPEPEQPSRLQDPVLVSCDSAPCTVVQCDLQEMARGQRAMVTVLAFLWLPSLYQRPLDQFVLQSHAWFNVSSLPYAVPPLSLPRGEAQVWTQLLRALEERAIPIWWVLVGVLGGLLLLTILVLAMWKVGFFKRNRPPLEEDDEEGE
Assay [3] concerns the target T1, Integrin alpha-IIb/beta-3. Put plainly: Inhibition of GPIIb/IIIa binding in activated human platelets. The assay is classed as functional.
Target sequence in this assay (P05106 27-788 limits assumed): as the sequence (P05106 27-788 limits assumed) above
Target sequence in this assay (P08514 32-887 limits assumed): as the sequence (P08514 32-887 limits assumed) above
Target sequence in this assay (P08514 891-1039 limits assumed): as the sequence (P08514 891-1039 limits assumed) above

With `N=C(N)c1ccc(C2=NOC(CC(=O)N3CCCCC3CC(=O)O)C2)cc1` (single isomer, unassigned; isomer B) [listing 1 of 2 here], the Ratio in assay [1] was 19. The IC50 is the concentration at which inhibition is half-maximal. Consider `N=C(N)c1ccc(C2=NOC(CC(=O)N3CCCCC3CC(=O)O)C2)cc1` (single isomer, unassigned; isomer D), for which, in assay [2], the IC50 was above 5000 nM. For the compound `N=C(N)c1ccc(C2=NOC(CC(=O)NCCC(=O)O)C2)cc1` (stereo not given), the IC50 in assay [2] stood at 112 nM; in assay [3], 4 nM. Further, in assay [1], the Ratio stood at 28. For the compound `N=C(N)c1ccc(C2=NOC(CC(=O)N3CCCCC3CC(=O)O)C2)cc1` (single isomer, unassigned; isomer C) [listing 1 of 2 here], in assay [1], the Ratio turned out to be 32. In the case of `N=C(N)c1ccc(C2=NOC(CC(=O)N3CCCCC3CC(=O)O)C2)cc1` (single isomer, unassigned; isomer B) [listing 2 of 2 here], the IC50 was 5800 nM in assay [2] and 302 nM in assay [3]. Turning to `N=C(N)c1ccc(C2=NOC(CC(=O)N3CCCCC3CC(=O)O)C2)cc1` (single isomer, unassigned; isomer C) [listing 2 of 2 here], the 50% inhibitory concentration (IC50) was found to be 64 nM in assay [2] and 2 nM in assay [3].
